Laboratory results reported in PubChem BioAssay (NCI).
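Five compound concentrations were applied to cells in 96-well plates for 48 hours; endpoints were derived by simple linear interpolation of the resulting dose-response curve. Definition used: TGI = concentration required for complete inhibition of growth.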

What was measured:
Test in all cases: growth of human tumour cells (NCI), 48 h
786-0 renal = system: 786-0 renal
A498 renal = system: A498 renal
A549 NSCLC = system: A549 NSCLC
ACHN renal = system: ACHN renal
CAKI-1 renal = system: CAKI-1 renal
CCRF-CEM leukemia = system: CCRF-CEM leukemia
COLO 205 colon = system: COLO 205 colon
DU-145 prostate = system: DU-145 prostate
EKVX NSCLC = system: EKVX NSCLC
HCC-2998 colon = system: HCC-2998 colon
HCT-116 colon = system: HCT-116 colon
HCT-15 colon = system: HCT-15 colon
HL-60(TB) leukemia = system: HL-60(TB) leukemia
HOP-62 NSCLC = system: HOP-62 NSCLC
HOP-92 NSCLC = system: HOP-92 NSCLC
HS 578T breast = system: HS 578T breast
IGROV1 ovarian = system: IGROV1 ovarian
K-562 leukemia = system: K-562 leukemia
KM12 colon = system: KM12 colon
LOX IMVI melanoma = system: LOX IMVI melanoma
M14 melanoma = system: M14 melanoma
MALME-3M melanoma = system: MALME-3M melanoma
MCF7 breast = system: MCF7 breast
MDA-MB-231 breast = system: MDA-MB-231 breast
MDA-MB-435 = system: MDA-MB-435
MDA-N = system: MDA-N
MOLT-4 leukemia = system: MOLT-4 leukemia
NCI-H226 lung = system: NCI-H226 lung
NCI-H23 lung = system: NCI-H23 lung
NCI-H460 lung = system: NCI-H460 lung
NCI-H522 lung = system: NCI-H522 lung
NCI/ADR-RES ovarian = system: NCI/ADR-RES ovarian
OVCAR-3 ovarian = system: OVCAR-3 ovarian
OVCAR-5 ovarian = system: OVCAR-5 ovarian
OVCAR-8 ovarian = system: OVCAR-8 ovarian
PC-3 prostate = system: PC-3 prostate
RPMI-8226 leukemia = system: RPMI-8226 leukemia
RXF 393 renal = system: RXF 393 renal
SF-268 CNS = system: SF-268 CNS
SF-295 CNS = system: SF-295 CNS
SF-539 CNS = system: SF-539 CNS
SK-MEL-2 melanoma = system: SK-MEL-2 melanoma
SK-MEL-28 melanoma = system: SK-MEL-28 melanoma
SK-MEL-5 melanoma = system: SK-MEL-5 melanoma
SK-OV-3 ovarian = system: SK-OV-3 ovarian
SN12C renal = system: SN12C renal
SNB-19 CNS = system: SNB-19 CNS
SR leukemia = system: SR leukemia
SW-620 colon = system: SW-620 colon
T-47D breast = system: T-47D breast
TK-10 renal = system: TK-10 renal
U251 CNS = system: U251 CNS
UACC-257 melanoma = system: UACC-257 melanoma
UACC-62 melanoma = system: UACC-62 melanoma
UO-31 renal = system: UO-31 renal
BT-549 breast = system: BT-549 breast
HT29 colon = system: HT29 colon
OVCAR-4 ovarian = system: OVCAR-4 ovarian
SNB-75 CNS = system: SNB-75 CNS

SMILES: O=C(O)CNC(=O)c1ccc(-c2ccccc2)cc1
- TGI (786-0 renal): > 100 µM
- TGI (A498 renal): > 100 µM
- TGI (A549 NSCLC): > 100 µM
- TGI (ACHN renal): > 100 µM
- TGI (CAKI-1 renal): > 100 µM
- TGI (CCRF-CEM leukemia): > 100 µM
- TGI (COLO 205 colon): > 100 µM
- TGI (DU-145 prostate): > 100 µM
- TGI (EKVX NSCLC): > 100 µM
- TGI (HCC-2998 colon): > 100 µM
- TGI (HCT-116 colon): > 100 µM
- TGI (HCT-15 colon): > 100 µM
- TGI (HL-60(TB) leukemia): > 100 µM
- TGI (HOP-62 NSCLC): > 100 µM
- TGI (HOP-92 NSCLC): > 100 µM
- TGI (HS 578T breast): > 100 µM
- TGI (IGROV1 ovarian): > 100 µM
- TGI (K-562 leukemia): > 100 µM
- TGI (KM12 colon): > 100 µM
- TGI (LOX IMVI melanoma): > 100 µM
- TGI (M14 melanoma): > 100 µM
- TGI (MALME-3M melanoma): > 100 µM
- TGI (MCF7 breast): > 100 µM
- TGI (MDA-MB-231 breast): > 100 µM
- TGI (MDA-MB-435): > 100 µM
- TGI (MDA-N): > 100 µM
- TGI (MOLT-4 leukemia): > 100 µM
- TGI (NCI-H226 lung): > 100 µM
- TGI (NCI-H23 lung): > 100 µM
- TGI (NCI-H460 lung): > 100 µM
- TGI (NCI-H522 lung): > 100 µM
- TGI (NCI/ADR-RES ovarian): > 100 µM
- TGI (OVCAR-3 ovarian): > 100 µM
- TGI (OVCAR-5 ovarian): > 100 µM
- TGI (OVCAR-8 ovarian): > 100 µM
- TGI (PC-3 prostate): > 100 µM
- TGI (RPMI-8226 leukemia): > 100 µM
- TGI (RXF 393 renal): > 100 µM
- TGI (SF-268 CNS): > 100 µM
- TGI (SF-295 CNS): > 100 µM
- TGI (SF-539 CNS): > 100 µM
- TGI (SK-MEL-2 melanoma): > 100 µM
- TGI (SK-MEL-28 melanoma): > 100 µM
- TGI (SK-MEL-5 melanoma): > 100 µM
- TGI (SK-OV-3 ovarian): > 100 µM
- TGI (SN12C renal): > 100 µM
- TGI (SNB-19 CNS): > 100 µM
- TGI (SR leukemia): > 100 µM
- TGI (SW-620 colon): > 100 µM
- TGI (T-47D breast): > 100 µM
- TGI (TK-10 renal): > 100 µM
- TGI (U251 CNS): > 100 µM
- TGI (UACC-257 melanoma): > 100 µM
- TGI (UACC-62 melanoma): > 100 µM
- TGI (UO-31 renal): > 100 µM

SMILES: O=C1CCCCC/C1=C\c1cccc(Cl)c1
- TGI (786-0 renal): > 100 µM
- TGI (A498 renal): > 100 µM
- TGI (A549 NSCLC): > 100 µM
- TGI (ACHN renal): > 100 µM
- TGI (BT-549 breast): > 100 µM
- TGI (CAKI-1 renal): > 100 µM
- TGI (CCRF-CEM leukemia): 30.4 µM
- TGI (COLO 205 colon): > 100 µM
- TGI (DU-145 prostate): > 100 µM
- TGI (EKVX NSCLC): > 100 µM
- TGI (HCC-2998 colon): > 100 µM
- TGI (HCT-116 colon): > 100 µM
- TGI (HCT-15 colon): > 100 µM
- TGI (HOP-62 NSCLC): > 100 µM
- TGI (HOP-92 NSCLC): > 100 µM
- TGI (HS 578T breast): 94.3 µM
- TGI (HT29 colon): > 100 µM
- TGI (IGROV1 ovarian): > 100 µM
- TGI (KM12 colon): > 100 µM
- TGI (LOX IMVI melanoma): > 100 µM
- TGI (M14 melanoma): > 100 µM
- TGI (MALME-3M melanoma): > 100 µM
- TGI (MDA-MB-231 breast): > 100 µM
- TGI (MDA-MB-435): 94.4 µM
- TGI (MDA-N): > 100 µM
- TGI (MOLT-4 leukemia): > 100 µM
- TGI (NCI-H226 lung): > 100 µM
- TGI (NCI-H23 lung): > 100 µM
- TGI (NCI-H460 lung): 87.7 µM
- TGI (NCI-H522 lung): > 100 µM
- TGI (OVCAR-3 ovarian): > 100 µM
- TGI (OVCAR-4 ovarian): 83.3 µM
- TGI (OVCAR-5 ovarian): > 100 µM
- TGI (PC-3 prostate): 80.4 µM
- TGI (RPMI-8226 leukemia): > 100 µM
- TGI (SF-268 CNS): 68.2 µM
- TGI (SF-295 CNS): 50.2 µM
- TGI (SK-MEL-2 melanoma): > 100 µM
- TGI (SK-MEL-28 melanoma): > 100 µM
- TGI (SK-MEL-5 melanoma): > 100 µM
- TGI (SK-OV-3 ovarian): > 100 µM
- TGI (SN12C renal): > 100 µM
- TGI (SNB-19 CNS): > 100 µM
- TGI (SNB-75 CNS): > 100 µM
- TGI (SR leukemia): > 100 µM
- TGI (SW-620 colon): 60.1 µM
- TGI (T-47D breast): > 100 µM
- TGI (U251 CNS): > 100 µM
- TGI (UACC-257 melanoma): > 100 µM
- TGI (UACC-62 melanoma): > 100 µM
- TGI (UO-31 renal): > 100 µM
